For one experiment, the target named is human Foxo1 (human) (UniProt Q12778). Briefly: cell-based or functional assay.
In another experiment the test system is HEPG2 hepatocyte cells. Briefly: Expression of FOXO targets in serum starved, PI3K inhibited HEPG2 hepatocyte cells. The class given is cell-based, human. The conditions noted are these: serum starved+LY+PERK inhibition vs serum starved+LY. How it is done:
To test the effects of PERK inhibition on endogenous Foxo1 targets, the cells were serum starved to remove growth factors and treated with the PI3K inhibitor LY294002 (50 μM) to further reduce AKT activity (“serum starved+LY”) for 4 hours. This treatment can be viewed as a model for extreme insulin resistance, in that it removes the capacity of the cell to respond insulin signaling by activating AKT. Control cells were grown in DMEM supplemented with 10% FBS (“control with serum”). The endogenous human FOXO targets are BIM gene (a pro-apoptotic member of the BCL-2 protein family), Cyclin G2 gene (encoding a cyclin that blocks cell cycle entry), insulin receptor substrate 2 gene (IRS-2; encoding a cytoplasmic signaling molecule that mediates effects of insulin), p27KIP1 gene (encoding a cell cycle regulatory protein), pyruvate dehydrogenase lipoamide kinase isozyme 4 gene (PDK4; encoding a protein that inhibits the pyruvate dehydrogenase complex), phosphoenolpyruvate carboxykinase 2 (PCK2; encoding a mitochondrial enzyme), p21 gene (encoding a cyclin-dependent kinase inhibitor) and insulin receptor gene (INSR). The rp132 gene (a ribosomal protein gene) and the mActin gene (encoding a muscle-specific type actin) are not FOXO targets and were used as controls. […] Example 11A was repeated with HEPG2 hepatocyte cells instead.

The next experiment deals with HEPG2 liver cells. Briefly: Foxo1 target gene expression in palmitate treated (insulin resistant) HEPG2 liver cells. The format is cell-based, human. The following applies: palmitate treated cells further treated with PERK kinase inhibitor. How it is done:
HEPG2 liver cells were treated with 0.75 mM of palmitate, a saturated fatty acid, for 17 hours to induce insulin resistance, and the effects of PERK inhibition were assessed by monitoring Foxo1 target gene expression. The Foxo1 target genes are pyruvate dehydrogenase lipoamide kinase isozyme 4 gene (PDK4; encoding a protein that inhibits the pyruvate dehydrogenase complex) and phosphoenolpyruvate carboxykinase 1 (PCK1; encoding […]).
The results are shown in FIG. 12A, where the data was normalized to Kinesin mRNA levels and to the level of the rp132 control mRNAs.
The palmitate treated cells were further treated by inhibiting PERK kinase inhibitor 5-Bromo-N4-2-pyridinyl-N2-[3-(1,2,3,6-tetrahydro-4-pyridinyl)-1H-indol-5-yl]-2,4-pyrimidinediamine.
The results are shown in FIG. 12B, where the data was normalized to Kinesin mRNA levels and to the level of the rp132 control mRNAs. It can be seen that PERK inhibition decreased the expression of the Foxo1 targets, PDK4 and PCK1.

The next experiment has as its system MCF-7 cells. Briefly: Expression of endogenous Foxo1 targets in serum starved, PI3K inhibited MCF-7 cells. The conditions noted are these: serum starved+LY+PERK inhibition vs serum starved+LY. The format is cell-based, human. How it is done:
To test the effects of PERK inhibition on endogenous Foxo1 targets, the cells were serum starved to remove growth factors and treated with the PI3K inhibitor LY294002 (50 μM) to further reduce AKT activity (“serum starved+LY”) for 4 hours. This treatment can be viewed as a model for extreme insulin resistance, in that it removes the capacity of the cell to respond insulin signaling by activating AKT. Control cells were grown in DMEM supplemented with 10% FBS (“control with serum”). The endogenous human FOXO targets are BIM gene (a pro-apoptotic member of the BCL-2 protein family), Cyclin G2 gene (encoding a cyclin that blocks cell cycle entry), insulin receptor substrate 2 gene (IRS-2; encoding a cytoplasmic signaling molecule that mediates effects of insulin), p27KIP1 gene (encoding a cell cycle regulatory protein), pyruvate dehydrogenase lipoamide kinase isozyme 4 gene (PDK4; encoding a protein that inhibits the pyruvate dehydrogenase complex), phosphoenolpyruvate carboxykinase 2 (PCK2; encoding a mitochondrial enzyme), p21 gene (encoding a cyclin-dependent kinase inhibitor) and insulin receptor gene (INSR). The rp132 gene (a ribosomal protein gene) and the mActin gene (encoding a muscle-specific type actin) are not FOXO targets and were used as controls. […]

The subject of a further experiment is human Foxo1. The experiment can be described thus: Foxo1 luciferase reporter assay in human H1299 cells. The class given is cell-based. The conditions noted are these: 1 μM. As to the method: Human H1299 cells were transfected to express human Foxo1 (“FOXO1”) and co-transfected to express PERK (“FOXO1+PERK”). The transfected H1299 cells were treated with 1 μM PERK kinase inhibitor (“FOXO1+inhibitor” and “FOXO1+PERK+inhibitor”). The PERK kinase inhibitor has the chemical formula: 5-Bromo-N4-2-pyridinyl-N2-[3-(1,2,3,6-tetrahydro-4-pyridinyl)-1H-indol-5-yl]-2,4-pyrimidinediamine. The activity of the Foxo1 luciferase reporter gene was then measured in terms of normalized IRS-luciferase levels.

For the next experiment, the system named is human AGS cells. The experiment can be described thus: Quantitative RT-PCR of FOXO target mRNAs in human AGS cells under ER stress. The class given is cell-based. How it is done:
(§1) The expression of certain mRNAs was measured by quantitative reverse transcription polymerase chain reaction (RT-PCR). In this example, the mRNA was extracted and purified using RNeasy Mini Kit (Qiagen, Netherlands) with DNase to eliminate genomic DNA contamination. Reverse transcription to synthesize the first strand utilized oligo-dT primers. The mRNAs measured are known FOXO targets: […] (CHOP), Bim (anti- or pro-apoptotic regulators), Growth Arrest and DNA Damage gene (GADD45) and PERK. Bip2, which is not a FOXO target, was also measured as a control. Results were normalized to Kinesin mRNA.
Dimethyl sulfoxide (DMSO)-treated human AGS cells were used as a control, denoted as “ctrl”. The human AGS cells were grown in Roswell Park Memorial Institute (RPMI) media supplemented with 10% FBS, and treated with 10 μg/ml tunicamycin dissolved in DMSO at 1 mg/ml for 4 hours to induce ER stress. The tunicamycin treated cells are denoted as “TM”.
Quantitative RT-PCR was performed to show the relative level of the indicated human mRNA targets. The results are shown in FIG. 5A where normalized levels of mRNA transcripts were measured for the “TM” cells compared to the “ctrl” cells. […] It can be concluded that ER stress induces the expression of Bip2, CHOP, Bim and GADD45.
(§2) The tunicamycin treated (“TM”) cells were further treated with siRNA treatment to deplete PERK from human AGS cells. The siRNA sequence used was 5′-[…]-3′ (SEQ ID NO: 1). The siRNA was transfected into cells using HiPerFect reagent (Qiagen, Netherlands) for 3 days before tunicamycin treatment. The PERK-depleted cells are denoted as “PERK RNAi+TM”.
(§3) Quantitative RT-PCR was performed to show the relative level of the indicated human mRNA targets. The results are shown in FIG. 5B where normalized levels of the target mRNA transcripts were measured for the “TM” cells compared with the “PERK RNAi+TM” cells. The levels of these target mRNAs in PERK-depleted (“PERK RNAi+TM”) cells were normalized to the levels of tunicamycin-treated (“TM”) control cells.

Another experiment has as its system PERK. The experiment can be described thus: siRNA depletion of PERK in human AGS cells, quantitative RT-PCR. The format is cell-based. The following applies: siRNA transfected 3 days before tunicamycin treatment. How it is done:
as §1, §2, §3

The subject of the next experiment is FOXO-GFP. Briefly: FOXO-GFP subcellular localization assay in Drosophila S2 cells. The class given is cell-based. The following applies: 10 μg/ml of insulin for 30 min, serum free medium. As to the method:
A FOXO-green fluorescent (GFP) fusion protein was expressed in Drosophila S2 cells by transient transfection. The Drosophila cells were grown in serum free medium and deprived of insulin. The transfected cells were treated with 10 μg/ml of insulin for 30 min and the subcellular localization of FOXO-GFP was scored by obtaining images of the FOXO-GFP expressing cells. The insulin treated cells were named sample (b). A control sample (a) was obtained by having no insulin treatment to the transfected cells. In sample (c), ER stress was induced by RNA interference (RNAi) to disrupt endoplasmic-reticulum-associated-protein degradation (ERAD) machinery. The disruption of ERAD machinery was done by treatment of dsRNA to deplete HMG-CoA reductase degradation protein 3 (Hrd3), thereby inducing ER stress. Thereafter, the cells were treated with insulin 4 days after the dsRNA treatment. In sample (d), ER stress was induced by dsRNA treatment to deplete Hrd3. PERK protein was also depleted using dsRNA treatment. Thereafter, the cells were treated with insulin 4 days after the dsRNA treatment.
The results are shown in FIG. 2, where N means predominantly nuclear, C means predominantly cytoplasmic and CN means both nuclear and cytoplasmic. […]

Setting [1] is: PERK RNAi+TM cells compared with TM cells.

Chain of UniProt Q12778 (Q12778 whole entry): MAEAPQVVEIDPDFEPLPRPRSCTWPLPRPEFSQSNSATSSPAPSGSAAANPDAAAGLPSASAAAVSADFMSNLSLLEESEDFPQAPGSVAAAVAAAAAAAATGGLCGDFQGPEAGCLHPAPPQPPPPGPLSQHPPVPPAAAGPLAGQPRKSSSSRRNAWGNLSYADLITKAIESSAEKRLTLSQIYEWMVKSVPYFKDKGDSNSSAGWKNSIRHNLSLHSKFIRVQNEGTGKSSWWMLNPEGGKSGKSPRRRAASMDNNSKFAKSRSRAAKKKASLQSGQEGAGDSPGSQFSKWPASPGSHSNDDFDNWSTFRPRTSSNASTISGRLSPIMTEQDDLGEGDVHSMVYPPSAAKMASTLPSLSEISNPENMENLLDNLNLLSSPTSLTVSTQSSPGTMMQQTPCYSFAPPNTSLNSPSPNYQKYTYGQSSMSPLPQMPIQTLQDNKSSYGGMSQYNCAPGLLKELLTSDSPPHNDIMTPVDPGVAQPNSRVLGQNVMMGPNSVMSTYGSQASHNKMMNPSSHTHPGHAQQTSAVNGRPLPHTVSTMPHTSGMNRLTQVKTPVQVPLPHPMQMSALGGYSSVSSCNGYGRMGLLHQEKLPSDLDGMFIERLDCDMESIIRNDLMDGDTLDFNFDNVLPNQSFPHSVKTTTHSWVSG

For “human protein kinase RNA-like endoplasmic reticulum kinase (PERK) protein (from UniProt Q9NZJ5 30-1116) (enzyme)”, in the experiment with human Foxo1 (human), the normalized luciferase levels of the human Foxo1 luciferase reporter amounted to 2 fold.
For `Brc1cnc(Nc2ccc3[nH]cc(C4=CCNCC4)c3c2)nc1Nc1ccccn1` [PERK kinase inhibitor, 5-Bromo-N4-2-pyridinyl-N2-[3-(1,2,3,6-tetrahydro-4-pyridinyl)-1H-indol-5-yl]-2,4-pyrimidinediamine], in the experiment on HEPG2 hepatocyte cells, the “expression of rp132 and mActin (not FOXO target genes)” value was “did not reduce”; the “target genes expression (p27, PDK, Cyclin G, PCK2, p21, INSR)” value is on record as “reduced the target genes expression”. Further, in the experiment with HEPG2 liver cells, the “expression of the Foxo1 targets PDK4 and PCK1” value is given as “decreased”; the “levels of rp123 and mActin (not Foxo1 targets)” value is recorded as “not substantially altered”. For the same compound, the “target genes expression (BIM, Cyclin G2, IRS-2, p27KIP1, PDK4)” value in the experiment with MCF-7 cells was “reducing the target genes expression”. In the experiment on human Foxo1 (FOXO1+PERK vs FOXO1+PERK+inhibitor), the “level of Foxo1 activity with co-expressed PERK (normalized IRS-luciferase levels)” value was “reduced the level of Foxo1 activity”. In addition, the “activity of Foxo1 alone (normalized IRS-luciferase levels)” value in the experiment on human Foxo1 (FOXO1 vs FOXO1+inhibitor) was “did not affect”.
As to 5′-CAAACUGUAUAACGGUUUATT-3′ [PERK RNAi], in the experiment on human AGS cells (setting [1]), the “degree of induction of Foxo1 targets CHOP, Bim and GADD45” value was “reducing the degree of induction”; the “levels of Bip2 transcripts (not a FOXO target)” value was “comparable”. The “decrease of PERK levels compared to TM cells” value in the experiment with PERK is on record as “more than 80%”.
Consider tunicamycin [TM, reference compound], for which the “levels of Bip2, CHOP, Bim and GADD45 mRNA transcripts compared to ctrl cells” value in the experiment on human AGS cells (10 μg/ml tunicamycin for 4 hours, normalized to Kinesin mRNA) is listed as “significantly higher”.
Turning to insulin, in the experiment on FOXO-GFP, the “location of FOXO-GFP both nuclear and cytoplasmic” value is reported as “about 30 % of cells”; the “location of FOXO-GFP cytoplasmic” value is listed as “about 70 % of cells”.
